Patent publication US7259167B2, “Antimalarial and antiproliferative pharmacophore models, novel tryptanthrin compounds having increased solubility, and methods of making and using thereof” (United States of America as Represented by the Secretary of …, priority 2002, dated 2007)

What was measured:
[1] = Hemin binding activity assay by 1H NMR (pseudocontact shifts); conditions: DMSO-d6
Protocol: (§1) As provided in Example 5, the hemin binding affinity for a series of tryptanthrin compounds with functional groups at the 8-position with different electron donating/withdrawing characteristics corresponding with the pharmacophore model of the present invention was determined by ^1H NMR. The binding interaction was measured as a function of the induced up-field shift in the chemical shift as a function of increasing hemin concentration. ^1H spectra of selected compounds each analog with an increasing concentration of hemin were collected and analyzed for the effect of the pseudocontact shifts.
It is well known that bio-molecules containing the paramagnetic species Fe^+3 induce via pseudocontact effect (a thru-space paramagnetic interaction, similar to the thru-space diopolar interaction or NOE) up-field chemical shifts of the ^1H, ^13C, ^15N atoms of bound ligands. See Serge Moreau et al. (1985) Biochemica et. Biophysica Acta 107-116; Alam, S. L., et al. (1998) J. Biomol. NMR 11:119-133; and Kalodimos, C. G., et al. (2000) J. Inorg. Biochem. 79:371-380, which are herein incorporated by reference. […] See Crowley, P. B., et al. (2001) J. Am. Chem. Soc. 123:10444-10453, which is herein incorporated by reference. Consequently, the closer a particular proton on the ligand is to the Fe^+3 atom, the greater the induced Δδ.
as §1, with “The” for “As provided in Example 5, the”, “using” for “by”, “of” for “of selected compounds”
To each sample, a 100 or 200 μl aliquot of a known concentration of hemin dissolved in 1.0 ml of DMSO-d6 was added. The concentrations of the tryptanthrin compounds compounds ranged from 3.0 to 8.0 mg per 500 μl of DMSO. A corresponding solution of hemin in DMSO was prepared to maintain a molar ratio of tryptanthrin compounds to hemin in the range of 1:1.0 to 1:1.5.
All ^1H NMR data was collected using a Bruker Avance-600 spectrometer using methods known in the art. See e.g. Wang, J., et al. (2001) J. Am. Chem. Soc. 123:8080-8088, which is herein incorporated by reference. The proton spectra were collected at 300 K, using a spectral width of 9090.9 Hz. All spectra were acquired with 64k data points in F2. All chemical shifts were referenced internally to TMS (0.00 ppm). The spectra were processed using XWINNMR (Bruker BioSpin Corporation, Billerica, Mass.) on a Silicon Graphics O2 workstation (Silicon Graphics, Mountain View, Calif.). Each data set was multiplied by a Gaussain window function with 0.3 Hz line broadening in each dimension before transformation.

[2] = test system: P. berghei P-line; assay: Bioavailability and efficacy of DN49 in infected mice; assay type: in vivo
Protocol: On day 0, each mouse in groups 1 to 7 was inoculated intraperitoneally with 0.1 ml, 1.0×10^6 P. berghei P-line infected red blood cell from donor mice diluted in PBS.
(§2) DN49 was a yellow powder and dissolved completely in hot DMSO. The hot DMSO solution was then diluted 1:10 in PBS.
On days 3 to 5, 0.2 ml of the three dosages at 2.5, 1.25, 0.625 mg/kg of DN49 were administered intravenously by a 29G, 0.5-inch needle (Groups 2 to 4). In addition, 0.2 ml of the three dosages at 30, 15, 7.5 mg/kg of DN49 were administered orally by a 20G, 2.5-inch needle (Groups 5 to 7). Drug administrations were performed once daily for 3 days. Group 1 served as vehicle control, and PBS was administered orally.

[3] = Further solubility experiments (remaining in solution after dilution); assay type: physicochemical
Protocol: After determining that heterocycles and hydroxy or amine substituted aromatics dissolve tryptanthrin compounds, the following was conducted to determine if once dissolved the compounds would remain in solution in aqueous environments. To this end 10 mg of DN49 was dissolved in 1.0 ml of piperidine to obtain a green solution. This solution was then added dropwise to 2.0 ml of deionized water without precipitation of the compound. The solution was placed in a chemical fume hood so that the piperidine could evaporate slowly. After a week, the piperidine had evaporated and the resulting solution had no solid in the aqueous environment and had turned from the green color of the piperidne complex back to the yellow color of uncomplexed DN49 solutions.
A […] green stock solution of DN49 in 1-(3-aminopropyl)imidazole was formed. To 1.95 ml of a given solvent listed below, 50 microliter of the stock solution was added and the resulting solution was vortexed for a second to ensure rapid mixing; this provided a 5 mM solution. The results by solvent follow: • 1. Chloroform: Solution goes from green to yellow in less than 30 minutes; no solid after more than three months at ambient conditions. • 2. Methanol: Solution goes from green to yellow between 5 and 12 hours after mixing; no solid. • 3. 1,4-dioxane: Solution goes from green to yellow in approximately 1 hour; no solid. • 4. Deionized water: Solution goes from […] over the course of several days; no solid. • 5. Acetonitrile: Solution goes from green to yellow in about 3 hours; no solid. • 6.

[4] = Characteristics of DN49 dosing preparation; assay type: physicochemical; conditions: Hot DMSO and further diluted in PBS (1:10)
Protocol: as §2

Q: Which results are given for `O=C1c2ccccc2-n2c1nc1ncccc1c2=O` [DN49]?
A: Maximum induced Δδ ([1]; hemin induced pseudocontact chemical shift): 0.558 ppm; Concentration dependence Δδ ([1]; slope of Δδ v. hemin concentration): 0.09778 ppm/mole %; extension of life of mice ([2]; 2.5 mg/kg intravenously once daily at study days 3 to 5): 2 days; extension of life of mice ([2]; 30 mg/kg orally once daily at study days 3 to 5): 2 days; mean parasitemia on day 6 ([2]; Group 2, 2.5 mg/kg intravenously once daily days 3 to 5): 54.75%; mean parasitemia on day 6 ([2]; Group 3, 1.25 mg/kg intravenously once daily days 3 to 5): 55.75%; mean parasitemia on day 6 ([2]; Group 4, 0.625 mg/kg intravenously once daily days 3 to 5): 61.18%; mean parasitemia on day 6 ([2]; Group 5, 30 mg/kg orally once daily days 3 to 5): 56.11%; mean parasitemia on day 6 ([2]; Group 6, 15 mg/kg orally once daily days 3 to 5): 54.26%; mean parasitemia on day 6 ([2]; Group 7, 7.5 mg/kg orally once daily days 3 to 5): 64.23%; acute toxicity or other deaths prior to day 6 ([2]; IV 0.625-2.5 mg/kg, oral 7.5-30 mg/kg): no acute toxicity; Toxic effects ([2]; at the dosages given (up to 2.5 mg/kg IV, 30 mg/kg oral)): not observed; activity at lower dosages ([2]; dosages below 2.5 mg/kg intravenously or 30 mg/kg orally): no significant activity; solid in aqueous solution after evaporation of piperidine ([3]; 10 mg in 1.0 ml piperidine added to 2.0 ml deionized water, after a week): no solid; solid formation from 5 mM solution ([3]; 50 microliter 200 mM stock in 1-(3-aminopropyl)imidazole into 1.95 ml Chloroform, more than three months at ambient conditions): no solid; solid formation from 5 mM solution ([3]; stock in 1-(3-aminopropyl)imidazole into 0.1 M aqueous citric acid): green solid fall out of solution after about 12 hours; solid formation from 5 mM solution ([3]; stock in 1-(3-aminopropyl)imidazole into 1,4-dioxane): no solid; solid formation from 5 mM solution ([3]; stock in 1-(3-aminopropyl)imidazole into 10% aqueous sodium bicarbonate): green precipitate after 8 hours; solid formation from 5 mM solution ([3]; stock in 1-(3-aminopropyl)imidazole into Acetonitrile): no solid; solid formation from 5 mM solution ([3]; stock in 1-(3-aminopropyl)imidazole into Deionized water): no solid; solid formation from 5 mM solution ([3]; stock in 1-(3-aminopropyl)imidazole into Methanol): no solid; solubility [4]: Partial
